The target of this assay is T1, ADI (Metamycoplasma hominis, UniProt P41141).
T1 construct: gene arcA
In words: amperometric detection of released ammonium (ADI/nCdCu/GCE electrode). Type of assay: biochemical. The note with it: immobilised enzyme on nCdCu-modified glassy carbon; pH 7.5; -200 mV vs Ag/AgCl.

T1 sequence (P41141 2-409): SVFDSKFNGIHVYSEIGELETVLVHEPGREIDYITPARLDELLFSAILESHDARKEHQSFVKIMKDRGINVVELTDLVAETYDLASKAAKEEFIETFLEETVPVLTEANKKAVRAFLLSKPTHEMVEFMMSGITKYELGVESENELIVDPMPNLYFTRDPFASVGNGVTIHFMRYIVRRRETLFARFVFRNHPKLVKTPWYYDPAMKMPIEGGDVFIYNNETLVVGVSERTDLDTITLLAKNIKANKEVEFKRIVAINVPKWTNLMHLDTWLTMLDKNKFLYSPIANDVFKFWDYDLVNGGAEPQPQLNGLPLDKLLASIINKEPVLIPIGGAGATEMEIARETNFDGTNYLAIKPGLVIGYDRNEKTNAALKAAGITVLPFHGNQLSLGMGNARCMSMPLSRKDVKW

Turning to `N=C(N)NCCC[C@H](N)C(=O)O` [L-arginine], the “amperometric detection of released ammonium (ADI/nCdCu/GCE electrode)” value is on record as “electrocatalytic activity of three bioelectrodes was evaluated by using CV under the addition of Arg”.
